Data: US20260325533A1, “CDK INHIBITOR COMPOUNDS” (ALEKSIA THERAPEUTICS, INC., priority 2023, published 2026)
Where two headings read alike, the source gives them in different places. Each block holds one compound with its values, some of them ahead of it.

Columns and labels:
Assay type in all cases: biochemical
CDK1/CCNB1 = CDK1/CCNB1 (Homo sapiens, UniProt P06493); experiment: CDK1 homogeneous time-resolved fluorescence (HTRF) kinase assay; details: CDK1/CCNB
Outline: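 HTRF assay with 0.5 nM CDK1/CCNB1, 1 mM ATP, 50 nM ULight-eIF4E-BP1 (Thr37/46) peptide; compound preincubated 20 min, reaction 60 min at 23 °C, EDTA stop, Eu-anti-phospho antibody detection. 11-point half-log titration from 10 μM, 1% DMSO; IC50 from 665 nm or 665/615 signal.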

CDK2/CCNE1 = CDK2/CCNE1 (Homo sapiens, UniProt P24941); experiment: CDK2 homogeneous time-resolved fluorescence (HTRF) kinase assay; details: CDK2/CCNE
Outline: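 Compounds were titrated 11-point, half-log from typically 10 μM against 3 nM CDK2/cyclin E1 at 1 mM ATP, with a 20 min enzyme preincubation. Phosphorylation of 50 nM ULight-4E-BP1 peptide over 60 min at 23 °C was detected by europium anti-phospho antibody TR-FRET.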

CDK6/CCND1 = CDK6/CCND1 (Homo sapiens, UniProt Q00534); experiment: CDK6 homogeneous time-resolved fluorescence (HTRF) kinase assay; details: CDK6/CCND
Sequence of CDK6/CCND1 (Q00534 whole entry): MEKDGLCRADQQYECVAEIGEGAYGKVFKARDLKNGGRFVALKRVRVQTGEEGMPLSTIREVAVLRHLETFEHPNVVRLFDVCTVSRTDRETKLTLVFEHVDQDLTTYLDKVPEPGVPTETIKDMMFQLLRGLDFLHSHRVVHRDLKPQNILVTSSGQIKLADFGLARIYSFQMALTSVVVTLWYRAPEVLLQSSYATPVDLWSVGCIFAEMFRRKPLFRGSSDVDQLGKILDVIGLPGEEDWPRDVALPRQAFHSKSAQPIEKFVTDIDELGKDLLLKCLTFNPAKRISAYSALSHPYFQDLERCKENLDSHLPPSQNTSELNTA
Sequence of CDK6/CCND1 (P24385 whole entry partner): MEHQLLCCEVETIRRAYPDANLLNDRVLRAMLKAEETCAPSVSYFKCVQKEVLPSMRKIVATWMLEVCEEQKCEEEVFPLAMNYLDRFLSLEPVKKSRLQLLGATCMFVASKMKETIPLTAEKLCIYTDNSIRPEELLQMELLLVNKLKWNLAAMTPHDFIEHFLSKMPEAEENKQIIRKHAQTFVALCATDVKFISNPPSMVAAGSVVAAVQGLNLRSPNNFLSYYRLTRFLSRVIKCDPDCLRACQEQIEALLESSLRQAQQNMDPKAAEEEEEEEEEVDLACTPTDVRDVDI
Outline: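 1 nM enzyme, 1 mM ATP, 50 nM ULight-4E-BP1 (Thr37/46) peptide, 1% DMSO; 20 min compound preincubation, 60 min reaction, 23 °C. EDTA stop, 2 nM Eu-anti-phospho-4E-BP1 antibody 60 min. TR-FRET 665 nm (or 665/615 ratio); IC50 from 11-point half-log titration, top 10 μM.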

CDK4/CCND3 = CDK4/CCND3 (Homo sapiens, UniProt P11802); experiment: CDK4 homogeneous time-resolved fluorescence (HTRF) kinase assay; details: CDK4/CCND
Sequence of CDK4/CCND3 (P11802 whole entry): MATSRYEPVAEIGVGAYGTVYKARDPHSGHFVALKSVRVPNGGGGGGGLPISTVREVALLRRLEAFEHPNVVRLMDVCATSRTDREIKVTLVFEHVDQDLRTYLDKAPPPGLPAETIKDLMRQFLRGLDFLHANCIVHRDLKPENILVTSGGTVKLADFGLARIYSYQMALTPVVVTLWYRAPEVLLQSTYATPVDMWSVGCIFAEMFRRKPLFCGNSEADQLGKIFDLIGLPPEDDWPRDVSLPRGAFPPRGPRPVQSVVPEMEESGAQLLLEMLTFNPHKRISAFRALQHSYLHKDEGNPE
Sequence of CDK4/CCND3 (P30281 whole entry partner): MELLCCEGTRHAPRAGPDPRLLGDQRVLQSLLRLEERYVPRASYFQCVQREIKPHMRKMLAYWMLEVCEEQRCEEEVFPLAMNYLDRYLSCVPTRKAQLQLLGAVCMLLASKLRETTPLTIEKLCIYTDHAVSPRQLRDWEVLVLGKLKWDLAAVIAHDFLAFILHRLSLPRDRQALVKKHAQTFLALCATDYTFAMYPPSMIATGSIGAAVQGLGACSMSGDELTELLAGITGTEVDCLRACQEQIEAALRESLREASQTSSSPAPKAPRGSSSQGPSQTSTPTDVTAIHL
Outline: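 Compounds were preincubated with 1.5 nM CDK4/CCND3 for 20 min at 23 °C in HEPES buffer (pH not given), then reacted 60 min with 1 mM ATP and 50 nM ULight-4E-BP1 (Thr37/46) peptide. EDTA stop, Eu-anti-phospho-4E-BP1 detection; 665/615 nm ratio; IC50 from 11-point half-log titrations from 10 μM.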

[1] = <25 nM, read-out: CDK2/CCNE IC50, <25 nM
[2] = 25-250 nM, read-out: CDK4/CCND IC50, 25-250 nM
[3] = 25-250 nM, read-out: CDK1/CCNB IC50, 25-250 nM
[4] = 25-250 nM, 1 mM ATP, read-out: CDK6/CCND IC50, 25-250 nM
[5] = x = IC50 25-250 nM, read-out: CDK1/CCNB IC50 (25-250 nM)
[6] = x = IC50 <25 nM, read-out: CDK2/CCNE IC50 (<25 nM)
[7] = x = IC50 25-250 nM, read-out: CDK6/CCND IC50 (25-250 nM)
[8] = x = IC50 25-250 nM, read-out: CDK4/CCND IC50 (25-250 nM)
[9] = x = IC50 >250 nM, read-out: CDK6/CCND IC50 (>250 nM column)
[10] = x = IC50 >250 nM, read-out: CDK4/CCND IC50 (>250 nM column)
[11] = x = IC50 >250 nM, read-out: CDK1/CCNB IC50 (>250 nM column)
[12] = 25-250 nM marked x, read-out: CDK1/CCNB IC50 25-250 nM
[13] = <25 nM, read-out: CDK2/CCNE IC50 <25 nM
[14] = >250 nM marked x, read-out: CDK6/CCND IC50 >250 nM
[15] = >250 nM marked x, read-out: CDK1/CCNB IC50 >250 nM
[16] = >250 nM marked x, read-out: CDK4/CCND IC50 >250 nM

Sequence of CDK1/CCNB1 (P06493 whole entry): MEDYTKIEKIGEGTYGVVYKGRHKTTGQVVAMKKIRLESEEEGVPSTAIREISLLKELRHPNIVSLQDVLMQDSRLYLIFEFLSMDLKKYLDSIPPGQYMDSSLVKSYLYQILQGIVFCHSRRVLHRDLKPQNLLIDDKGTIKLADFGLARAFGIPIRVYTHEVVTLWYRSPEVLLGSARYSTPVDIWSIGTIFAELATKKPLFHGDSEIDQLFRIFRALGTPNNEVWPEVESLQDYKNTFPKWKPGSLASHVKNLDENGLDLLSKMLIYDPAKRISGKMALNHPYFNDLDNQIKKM
Sequence of CDK1/CCNB1 (P14635 whole entry partner): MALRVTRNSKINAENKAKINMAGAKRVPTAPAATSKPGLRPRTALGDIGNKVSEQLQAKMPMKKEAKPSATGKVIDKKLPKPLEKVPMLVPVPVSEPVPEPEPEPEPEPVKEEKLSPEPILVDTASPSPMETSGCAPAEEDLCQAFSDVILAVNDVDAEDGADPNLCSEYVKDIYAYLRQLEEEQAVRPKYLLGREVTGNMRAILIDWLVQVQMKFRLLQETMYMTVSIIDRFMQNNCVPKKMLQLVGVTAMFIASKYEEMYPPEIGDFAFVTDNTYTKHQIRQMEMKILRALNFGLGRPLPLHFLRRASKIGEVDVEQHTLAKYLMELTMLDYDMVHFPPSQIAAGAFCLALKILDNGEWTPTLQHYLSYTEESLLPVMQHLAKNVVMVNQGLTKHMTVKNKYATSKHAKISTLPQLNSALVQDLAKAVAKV

- IC50 (CDK1/CCNB1; >250 nM, read-out: CDK1/CCNB IC50 >250 nM): > 250 nM
- IC50 (CDK2/CCNE1; [1]): < 25 nM
- IC50 (CDK6/CCND1; >250 nM, 1 mM ATP, read-out: CDK6/CCND IC50, >250 nM): > 250 nM
- IC50 (CDK4/CCND3; [2]): 25 to 250 nM
Structure (SMILES): CS(=O)(=O)c1ccc(Nc2cc3c(C#CC45CCC(Cl)(CC4)CC5)nccc3cn2)cc1 (racemic) [Ex 944, 5-((4-chlorobicyclo[2.2.2]octan-1-yl)ethynyl)-N-(4-(methylsulfonyl)phenyl)-2,6-naphthyridin-3-amine]

- IC50 (CDK1/CCNB1; [3]): 25 to 250 nM
- IC50 (CDK2/CCNE1; [1]): < 25 nM
- IC50 (CDK6/CCND1; [4]): 25 to 250 nM
- IC50 (CDK4/CCND3; [2]): 25 to 250 nM
Structure (SMILES): CS(=O)(=O)c1ccc(Nc2cc3c(C#CC45CC(C(N)=O)(C4)C5)nccc3cn2)cc1 (racemic) [Ex 945, 3-((7-((4-(methylsulfonyl)phenyl)amino)-2,6-naphthyridin-1-yl)ethynyl)bicyclo[1.1.1]pentane-1-carboxamide]

- IC50 (CDK1/CCNB1; [3]): 25 to 250 nM
- IC50 (CDK2/CCNE1; [1]): < 25 nM
- IC50 (CDK6/CCND1; [4]): 25 to 250 nM
- IC50 (CDK4/CCND3; [2]): 25 to 250 nM
Structure (SMILES): CS(=O)(=O)c1ccc(Nc2cc3c(C#CC45CCC(C#N)(CC4)CC5)nccc3cn2)cc1 (racemic) [Ex 946, 4-((7-((4-(methylsulfonyl)phenyl)amino)-2,6-naphthyridin-1-yl)ethynyl)bicyclo[2.2.2]octane-1-carbonitrile]

- IC50 (CDK1/CCNB1; [5]): 25 to 250 nM
- IC50 (CDK2/CCNE1; [6]): < 25 nM
- IC50 (CDK6/CCND1; [7]): 25 to 250 nM
- IC50 (CDK4/CCND3; [8]): 25 to 250 nM
Structure (SMILES): CC1(O)C(=O)Nc2cc(C#Cc3nccc4cnc(Nc5ccc(S(C)(=O)=O)cc5)cc34)ccc21 (racemic) [Example 362, 3-hydroxy-3-methyl-6-((7-((4-(methylsulfonyl)phenyl)amino)-2,6-naphthyridin-1-yl)ethynyl)indolin-2-one]

- IC50 (CDK1/CCNB1; [5]): 25 to 250 nM
- IC50 (CDK2/CCNE1; [6]): < 25 nM
- IC50 (CDK6/CCND1; [9]): > 250 nM
- IC50 (CDK4/CCND3; [10]): > 250 nM
Structure (SMILES): CCC1(C)C(=O)Nc2cc(C#Cc3nccc4cnc(Nc5ccc(S(C)(=O)=O)cc5)cc34)ccc21 (racemic) [Example 390, 3-ethyl-3-methyl-6-((7-((4-(methylsulfonyl)phenyl)amino)-2,6-naphthyridin-1-yl)ethynyl)indolin-2-one]

- IC50 (CDK1/CCNB1; [5]): 25 to 250 nM
- IC50 (CDK2/CCNE1; [6]): < 25 nM
- IC50 (CDK6/CCND1; [9]): > 250 nM
- IC50 (CDK4/CCND3; [8]): 25 to 250 nM
Structure (SMILES): CC1(CO)C(=O)Nc2cc(C#Cc3nccc4cnc(Nc5ccc(S(C)(=O)=O)cc5)cc34)ccc21 (racemic) [Example 391, 3-(hydroxymethyl)-3-methyl-6-((7-((4-(methylsulfonyl)phenyl)amino)-2,6-naphthyridin-1-yl)ethynyl)indolin-2-one]

- IC50 (CDK1/CCNB1; [11]): > 250 nM
- IC50 (CDK2/CCNE1; [6]): < 25 nM
- IC50 (CDK6/CCND1; [9]): > 250 nM
- IC50 (CDK4/CCND3; [10]): > 250 nM
Structure (SMILES): CC(C)S(=N)(=O)c1ccc(Nc2cc3c(C#Cc4ccc(=O)[nH]n4)nccc3cn2)cc1 (racemic) [Example 431, 6-((7-((4-(propan-2-ylsulfonimidoyl)phenyl)amino)-2,6-naphthyridin-1-yl)ethynyl)pyridazin-3(2H)-one]

- IC50 (CDK1/CCNB1; [11]): > 250 nM
- IC50 (CDK2/CCNE1; [6]): < 25 nM
- IC50 (CDK6/CCND1; [9]): > 250 nM
- IC50 (CDK4/CCND3; [10]): > 250 nM
Structure (SMILES): Cc1c(-c2nccc3cnc(Nc4ccc(S(C)(=N)=O)cc4)cc23)ccc2nn(C)cc12 (racemic) [Example 626, (4-((5-(2,4-dimethyl-2H-indazol-5-yl)-2,6-naphthyridin-3-yl)amino)phenyl)(imino)(methyl)-λ^6-sulfanone]

- IC50 (CDK1/CCNB1; [11]): > 250 nM
- IC50 (CDK2/CCNE1; [6]): < 25 nM
- IC50 (CDK6/CCND1; [7]): 25 to 250 nM
- IC50 (CDK4/CCND3; [10]): > 250 nM
Structure (SMILES): CC1(O)C=C(c2nccc3cnc(Nc4ccc(S(C)(=O)=O)cc4)cc23)CCC1 (racemic) [Example 671, 1-methyl-3-(7-((4-(methylsulfonyl)phenyl)amino)-2,6-naphthyridin-1-yl)cyclohex-2-en-1-ol]

- IC50 (CDK1/CCNB1; [11]): > 250 nM
- IC50 (CDK2/CCNE1; x = IC50 25-250 nM, read-out: CDK2/CCNE IC50 (25-250 nM)): 25 to 250 nM
- IC50 (CDK6/CCND1; [9]): > 250 nM
- IC50 (CDK4/CCND3; [10]): > 250 nM
Structure (SMILES): CS(=O)(=O)c1ccc(Nc2cc3c(N4CC[C@H](c5ccc(C#N)cc5)[C@H](O)C4)nccc3cn2)cc1 (relative stereo) [Example 606, 4-(3-hydroxy-1-(7-((4-(methylsulfonyl)phenyl)amino)-2,6-naphthyridin-1-yl)piperidin-4-yl)benzonitrile]

- IC50 (CDK1/CCNB1; [12]): 25 to 250 nM
- IC50 (CDK2/CCNE1; [13]): < 25 nM
- IC50 (CDK6/CCND1; <25 nM, read-out: CDK6/CCND IC50 <25 nM): < 25 nM
- IC50 (CDK4/CCND3; <25 nM, read-out: CDK4/CCND IC50 <25 nM): < 25 nM
Structure (SMILES): CS(=O)(=O)N1CCC(Nc2cc3c(N4CCC(C#N)C4)nccc3cn2)CC1 (single isomer, unassigned) [Ex 115, 1-(7-((1-(methylsulfonyl)piperidin-4-yl)amino)-2,6-naphthyridin-1-yl)pyrrolidine-3-carbonitrile]

- IC50 (CDK1/CCNB1; [12]): 25 to 250 nM
- IC50 (CDK2/CCNE1; [13]): < 25 nM
- IC50 (CDK6/CCND1; [14]): > 250 nM
- IC50 (CDK4/CCND3; 25-250 nM marked x, read-out: CDK4/CCND IC50 25-250 nM): 25 to 250 nM
Structure (SMILES): Cc1cc(S(=N)(=O)C2COC2)ccc1Nc1cc2c(C#Cc3ccc4c(c3)NC(=O)C43CC3)nccc2cn1 (single isomer, unassigned) [Ex 268, 6'-((7-((2-methyl-4-(oxetane-3-sulfonimidoyl)phenyl)amino)-2,6-naphthyridin-1-yl)ethynyl)spiro[cyclopropane-1,3'-indolin]-2'-one]

- IC50 (CDK1/CCNB1; [15]): > 250 nM
- IC50 (CDK2/CCNE1; [13]): < 25 nM
- IC50 (CDK6/CCND1; [14]): > 250 nM
- IC50 (CDK4/CCND3; [16]): > 250 nM
Structure (SMILES): CCC1(CC)C(=O)Nc2cc(C#Cc3nccc4cnc(Nc5ccc(S(=N)(=O)C6CCC6)cc5OC)cc34)ccc21 (single isomer, unassigned) [Ex 269, 6-((7-((4-(cyclobutanesulfonimidoyl)-2-methoxyphenyl)amino)-2,6-naphthyridin-1-yl)ethynyl)-3,3-diethylindolin-2-one]

- IC50 (CDK1/CCNB1; [15]): > 250 nM
- IC50 (CDK2/CCNE1; [13]): < 25 nM
- IC50 (CDK6/CCND1; [14]): > 250 nM
- IC50 (CDK4/CCND3; [16]): > 250 nM
Structure (SMILES): CCC1(CC)C(=O)Nc2cc(C#Cc3nccc4cnc(Nc5ccc(S(=N)(=O)C6COC6)cc5F)cc34)ccc21 (single isomer, unassigned) [Ex 273, 3,3-diethyl-6-((7-((2-fluoro-4-(oxetane-3-sulfonimidoyl)phenyl)amino)-2,6-naphthyridin-1-yl)ethynyl)indolin-2-one]

- IC50 (CDK1/CCNB1; [15]): > 250 nM
- IC50 (CDK2/CCNE1; [13]): < 25 nM
- IC50 (CDK6/CCND1; [14]): > 250 nM
- IC50 (CDK4/CCND3; [16]): > 250 nM
Structure (SMILES): COc1cc(S(=N)(=O)C2CC2)ccc1Nc1cc2c(C#Cc3ccc4c(c3)NC(=O)C43CC3)nccc2cn1 (single isomer, unassigned) [Ex 278, 6'-((7-((4-(cyclopropanesulfonimidoyl)-2-methoxyphenyl)amino)-2,6-naphthyridin-1-yl)ethynyl)spiro[cyclopropane-1,3'-indolin]-2'-one]

- IC50 (CDK1/CCNB1; [15]): > 250 nM
- IC50 (CDK2/CCNE1; >250 nM marked x, read-out: CDK2/CCNE IC50 >250 nM): > 250 nM
- IC50 (CDK6/CCND1; [14]): > 250 nM
- IC50 (CDK4/CCND3; [16]): > 250 nM
Structure (SMILES): CCC1(CC)C(=O)Nc2cc(C#Cc3nccc4cnc(Nc5ccc(S(=N)(=O)CC(F)(F)F)cc5OC)cc34)ccc21 (single isomer, unassigned) [Ex 281, 3,3-diethyl-6-((7-((2-methoxy-4-(2,2,2-trifluoroethylsulfonimidoyl)phenyl)amino)-2,6-naphthyridin-1-yl)ethynyl)indolin-2-one]

- IC50 (CDK1/CCNB1; [15]): > 250 nM
- IC50 (CDK2/CCNE1; 25-250 nM marked x, read-out: CDK2/CCNE IC50 25-250 nM): 25 to 250 nM
- IC50 (CDK6/CCND1; [14]): > 250 nM
- IC50 (CDK4/CCND3; [16]): > 250 nM
Structure (SMILES): CCC1(CC)C(=O)Nc2cc(C#Cc3nccc4cnc(Nc5ccc(S(=N)(=O)CC(F)(F)F)cc5C)cc34)ccc21 (single isomer, unassigned) [Ex 284, 3,3-diethyl-6-((7-((2-methyl-4-(2,2,2-trifluoroethylsulfonimidoyl)phenyl)amino)-2,6-naphthyridin-1-yl)ethynyl)indolin-2-one]
